Results taken from PubChem BioAssay (NCI).
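In this assay, cells in 96-well plates receive the compound at five concentrations for 48 hours. Endpoints are linearly interpolated between the surrounding concentrations. At the TGI there is no net growth.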

Key:
Test in all cases: NCI-60 cell line screen, 48 h
[1] = system: MOLT-4 leukemia
[2] = system: NCI-H460 lung
[3] = system: SF-539 CNS
[4] = system: UO-31 renal
[5] = system: SK-OV-3 ovarian
[6] = system: SW-620 colon
[7] = system: CCRF-CEM leukemia
[8] = system: MDA-N
[9] = system: NCI-H522 lung
[10] = system: CAKI-1 renal
[11] = system: TK-10 renal
[12] = system: OVCAR-8 ovarian
[13] = system: A498 renal
[14] = system: SF-295 CNS
[15] = system: HOP-92 NSCLC
[16] = system: K-562 leukemia
[17] = system: SF-268 CNS
[18] = system: NCI/ADR-RES ovarian
[19] = system: NCI-H23 lung
[20] = system: COLO 205 colon
[21] = system: MALME-3M melanoma
[22] = system: BT-549 breast
[23] = system: MDA-MB-231 breast
[24] = system: SNB-19 CNS
[25] = system: A549 NSCLC
[26] = system: DU-145 prostate
[27] = system: SN12C renal
[28] = system: RPMI-8226 leukemia
[29] = system: MCF7 breast
[30] = system: OVCAR-5 ovarian
[31] = system: SK-MEL-28 melanoma
[32] = system: NCI-H226 lung
[33] = system: ACHN renal
[34] = system: MDA-MB-435
[35] = system: SNB-75 CNS
[36] = system: UACC-62 melanoma
[37] = system: HCT-15 colon
[38] = system: KM12 colon
[39] = system: HL-60(TB) leukemia
[40] = system: IGROV1 ovarian
[41] = system: PC-3 prostate
[42] = system: U251 CNS
[43] = system: OVCAR-4 ovarian
[44] = system: SR leukemia
[45] = system: EKVX NSCLC
[46] = system: M14 melanoma
[47] = system: SK-MEL-5 melanoma
[48] = system: HCT-116 colon
[49] = system: OVCAR-3 ovarian
[50] = system: LOX IMVI melanoma
[51] = system: HOP-62 NSCLC
[52] = system: SK-MEL-2 melanoma
[53] = system: HS 578T breast
[54] = system: HT29 colon
[55] = system: T-47D breast
[56] = system: RXF 393 renal
[57] = system: 786-0 renal

For `CN(C)CCSS(=O)(=O)O`, the TGI [1] was > 100 µM, the TGI [2] was 34.7 µM and the TGI [3] was > 100 µM. For the same compound, the TGI [4] was > 100 µM, the TGI [5] was > 100 µM and the TGI [6] was > 100 µM. The TGI [7] was > 100 µM, the TGI [8] was > 100 µM and the TGI [9] was > 100 µM. For the same compound, the TGI [10] was > 100 µM, the TGI [11] was > 100 µM and the TGI [12] was > 100 µM. For the same compound, the TGI [13] was > 100 µM, the TGI [14] was 94.4 µM and the TGI [15] was > 100 µM. For the same compound, the TGI [16] was > 100 µM, the TGI [17] was > 100 µM and the TGI [18] was > 100 µM. For the same compound, the TGI [19] was > 100 µM, the TGI [20] was > 100 µM and the TGI [21] was > 100 µM. For the same compound, the TGI [22] was > 100 µM, the TGI [23] was > 100 µM and the TGI [24] was > 100 µM. For the same compound, the TGI [25] was > 100 µM, the TGI [26] was > 100 µM and the TGI [27] was > 100 µM. The TGI [28] was > 100 µM, the TGI [29] was > 100 µM and the TGI [30] was > 100 µM. The TGI [31] was > 100 µM, the TGI [32] was > 100 µM and the TGI [33] was > 100 µM. The TGI [34] was > 100 µM, the TGI [35] was > 100 µM and the TGI [36] was > 100 µM. For the same compound, the TGI [37] was > 100 µM, the TGI [38] was > 100 µM and the TGI [39] was > 100 µM. The TGI [40] was > 100 µM, the TGI [41] was > 100 µM and the TGI [42] was > 100 µM. The TGI [43] was > 100 µM, the TGI [44] was > 100 µM and the TGI [45] was > 100 µM. The TGI [46] was > 100 µM, the TGI [47] was > 100 µM and the TGI [48] was > 100 µM. The TGI [49] was > 100 µM, the TGI [50] was > 100 µM and the TGI [51] was > 100 µM. For the same compound, the TGI [52] was > 100 µM, the TGI [53] was > 100 µM and the TGI [54] was > 100 µM. The TGI [55] was > 100 µM, the TGI [56] was > 100 µM and the TGI [57] was > 100 µM.
